Measured values reported in the supplement of paper PMC12076712.

How the values were obtained:
Assay in all cases: pIC50, kinobeads binding competition
[1] = molecular target: UniProt O75582
Procedure, shortened: (§1)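 Either living Jurkat cells (60 min at 37 °C, then lysis) or lysates (60 min at 4 °C) were treated with nine compound concentrations from a top of 30 μM, in 1:4 steps for cells and 1:5 steps for lysates. The lysates were from Jurkat cells or a 1:1:1:1 mix of HEK293, K-562, HepG2 and placenta. Kinobeads-bound proteins were digested and quantified by TMT10 LC-MS/MS. pIC50 was calculated by logistic dose-response fitting (R drc package) of fold changes relative to vehicle, in biological duplicates.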

[2] = molecular target: T1, MYLK3 (UniProt Q32MK0); details: cell material: Lysate mix
T1 sequence (whole entry): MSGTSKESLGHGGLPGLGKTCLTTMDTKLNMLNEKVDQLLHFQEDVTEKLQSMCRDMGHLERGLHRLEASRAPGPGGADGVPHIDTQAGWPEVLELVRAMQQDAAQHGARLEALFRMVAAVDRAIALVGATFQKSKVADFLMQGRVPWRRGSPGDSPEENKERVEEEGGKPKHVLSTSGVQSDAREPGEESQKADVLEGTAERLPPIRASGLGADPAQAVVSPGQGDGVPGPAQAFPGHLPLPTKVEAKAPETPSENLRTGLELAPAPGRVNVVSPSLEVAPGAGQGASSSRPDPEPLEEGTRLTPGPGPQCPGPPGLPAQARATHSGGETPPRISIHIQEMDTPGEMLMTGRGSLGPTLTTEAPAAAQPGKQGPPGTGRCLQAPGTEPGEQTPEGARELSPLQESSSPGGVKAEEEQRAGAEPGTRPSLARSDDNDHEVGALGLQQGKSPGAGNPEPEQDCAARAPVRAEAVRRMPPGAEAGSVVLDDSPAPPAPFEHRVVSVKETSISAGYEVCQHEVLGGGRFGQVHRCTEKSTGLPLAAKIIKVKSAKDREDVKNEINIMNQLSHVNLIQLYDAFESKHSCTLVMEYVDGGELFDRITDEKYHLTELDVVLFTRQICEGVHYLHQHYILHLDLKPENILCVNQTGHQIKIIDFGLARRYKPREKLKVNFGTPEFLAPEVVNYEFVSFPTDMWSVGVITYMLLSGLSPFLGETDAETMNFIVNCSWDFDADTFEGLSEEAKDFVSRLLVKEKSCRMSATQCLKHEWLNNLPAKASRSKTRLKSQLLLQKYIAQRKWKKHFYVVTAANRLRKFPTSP
Procedure, shortened: as §1

[3] = molecular target: UniProt P36507
Chain of UniProt P36507 (P36507 whole entry): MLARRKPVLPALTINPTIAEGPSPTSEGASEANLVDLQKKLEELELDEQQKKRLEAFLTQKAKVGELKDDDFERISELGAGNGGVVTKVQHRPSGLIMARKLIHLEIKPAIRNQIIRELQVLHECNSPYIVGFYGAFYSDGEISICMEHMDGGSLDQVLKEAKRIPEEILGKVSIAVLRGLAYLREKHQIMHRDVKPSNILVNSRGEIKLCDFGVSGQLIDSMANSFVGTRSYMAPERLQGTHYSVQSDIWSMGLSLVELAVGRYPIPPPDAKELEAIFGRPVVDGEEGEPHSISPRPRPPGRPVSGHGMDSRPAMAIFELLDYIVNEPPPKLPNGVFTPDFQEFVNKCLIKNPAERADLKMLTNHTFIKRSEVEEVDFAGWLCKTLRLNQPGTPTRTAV
Procedure, shortened: as §1

[4] = molecular target: T2, UniProt P35626
T2 sequence (whole entry): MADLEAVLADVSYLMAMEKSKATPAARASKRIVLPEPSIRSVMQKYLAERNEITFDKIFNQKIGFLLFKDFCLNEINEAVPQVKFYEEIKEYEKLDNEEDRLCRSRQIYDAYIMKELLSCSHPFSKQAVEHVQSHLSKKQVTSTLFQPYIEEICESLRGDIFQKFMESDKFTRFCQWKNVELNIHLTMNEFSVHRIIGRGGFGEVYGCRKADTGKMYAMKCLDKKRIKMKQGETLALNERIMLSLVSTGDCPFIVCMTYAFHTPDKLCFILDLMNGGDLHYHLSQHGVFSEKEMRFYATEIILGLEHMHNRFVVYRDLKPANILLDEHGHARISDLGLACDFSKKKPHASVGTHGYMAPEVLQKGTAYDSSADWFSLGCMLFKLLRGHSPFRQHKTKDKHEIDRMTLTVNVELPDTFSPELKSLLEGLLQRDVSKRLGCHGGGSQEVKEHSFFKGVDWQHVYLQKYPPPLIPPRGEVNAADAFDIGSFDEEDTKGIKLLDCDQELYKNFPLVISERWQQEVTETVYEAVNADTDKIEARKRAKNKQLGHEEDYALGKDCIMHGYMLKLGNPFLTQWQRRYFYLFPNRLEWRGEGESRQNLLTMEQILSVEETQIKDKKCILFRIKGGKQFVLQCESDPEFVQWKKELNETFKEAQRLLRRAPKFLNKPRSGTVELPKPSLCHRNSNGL
Procedure, shortened: as §1

[5] = molecular target: T3, EPHB6 (UniProt O15197)
T3 sequence (whole entry): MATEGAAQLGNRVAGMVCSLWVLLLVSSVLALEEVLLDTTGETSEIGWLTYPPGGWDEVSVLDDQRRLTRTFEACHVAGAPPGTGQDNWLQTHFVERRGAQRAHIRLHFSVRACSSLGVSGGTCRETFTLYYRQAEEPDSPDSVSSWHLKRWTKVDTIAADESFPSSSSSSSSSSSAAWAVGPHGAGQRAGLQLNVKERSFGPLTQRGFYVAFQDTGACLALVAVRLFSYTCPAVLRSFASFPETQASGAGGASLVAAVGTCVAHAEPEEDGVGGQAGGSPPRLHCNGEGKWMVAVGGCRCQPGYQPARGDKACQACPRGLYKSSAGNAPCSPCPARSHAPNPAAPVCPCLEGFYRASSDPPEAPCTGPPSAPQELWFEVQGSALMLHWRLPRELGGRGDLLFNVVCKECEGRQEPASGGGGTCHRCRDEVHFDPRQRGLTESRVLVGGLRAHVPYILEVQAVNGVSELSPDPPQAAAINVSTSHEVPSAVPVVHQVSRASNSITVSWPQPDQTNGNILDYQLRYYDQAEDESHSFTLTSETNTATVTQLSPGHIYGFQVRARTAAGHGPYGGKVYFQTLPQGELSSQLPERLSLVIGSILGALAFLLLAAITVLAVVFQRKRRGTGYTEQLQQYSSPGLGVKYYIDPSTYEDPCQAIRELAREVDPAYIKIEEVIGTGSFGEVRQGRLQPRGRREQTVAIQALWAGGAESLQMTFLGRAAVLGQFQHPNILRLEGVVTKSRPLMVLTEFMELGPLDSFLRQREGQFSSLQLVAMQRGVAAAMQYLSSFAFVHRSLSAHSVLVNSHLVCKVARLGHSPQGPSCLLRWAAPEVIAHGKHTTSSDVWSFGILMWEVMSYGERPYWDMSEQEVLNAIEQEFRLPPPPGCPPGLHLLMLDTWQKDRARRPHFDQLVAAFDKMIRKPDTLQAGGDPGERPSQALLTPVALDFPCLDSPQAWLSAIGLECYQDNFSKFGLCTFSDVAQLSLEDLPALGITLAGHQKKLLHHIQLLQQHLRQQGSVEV
Procedure, shortened: as §1

[6] = molecular target: UniProt Q05397
Chain of UniProt Q05397 (Q05397 whole entry, looked up): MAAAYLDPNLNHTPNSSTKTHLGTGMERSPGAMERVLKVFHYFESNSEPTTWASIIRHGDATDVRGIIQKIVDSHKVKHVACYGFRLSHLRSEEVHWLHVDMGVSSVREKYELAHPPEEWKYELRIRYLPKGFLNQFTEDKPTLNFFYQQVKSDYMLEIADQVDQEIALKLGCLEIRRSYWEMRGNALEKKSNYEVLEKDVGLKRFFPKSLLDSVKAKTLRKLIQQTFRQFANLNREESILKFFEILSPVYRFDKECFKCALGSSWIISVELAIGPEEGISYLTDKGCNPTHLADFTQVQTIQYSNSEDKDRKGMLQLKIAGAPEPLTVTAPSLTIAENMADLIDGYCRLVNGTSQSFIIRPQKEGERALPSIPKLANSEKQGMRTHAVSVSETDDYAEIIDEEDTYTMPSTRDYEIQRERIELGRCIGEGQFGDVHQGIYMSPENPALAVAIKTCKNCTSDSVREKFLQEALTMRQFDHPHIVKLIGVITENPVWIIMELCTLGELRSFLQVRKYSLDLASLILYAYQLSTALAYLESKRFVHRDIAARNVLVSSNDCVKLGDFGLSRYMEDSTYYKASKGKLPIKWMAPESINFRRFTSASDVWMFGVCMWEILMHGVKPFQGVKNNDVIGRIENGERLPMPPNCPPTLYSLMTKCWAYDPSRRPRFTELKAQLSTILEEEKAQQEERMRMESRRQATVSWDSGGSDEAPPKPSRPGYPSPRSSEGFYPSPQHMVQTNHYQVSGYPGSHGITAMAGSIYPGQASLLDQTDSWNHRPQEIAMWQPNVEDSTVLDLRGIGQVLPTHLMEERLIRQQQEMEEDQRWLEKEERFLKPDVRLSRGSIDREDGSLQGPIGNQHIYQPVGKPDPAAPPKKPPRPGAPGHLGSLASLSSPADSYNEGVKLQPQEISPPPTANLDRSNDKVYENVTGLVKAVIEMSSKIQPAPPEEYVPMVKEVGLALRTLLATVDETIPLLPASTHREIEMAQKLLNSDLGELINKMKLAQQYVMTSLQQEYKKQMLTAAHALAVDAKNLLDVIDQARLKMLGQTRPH
Procedure, shortened: as §1

[7] = molecular target: IRAK1 (UniProt P51617)
Chain of IRAK1 (P51617 whole entry, looked up): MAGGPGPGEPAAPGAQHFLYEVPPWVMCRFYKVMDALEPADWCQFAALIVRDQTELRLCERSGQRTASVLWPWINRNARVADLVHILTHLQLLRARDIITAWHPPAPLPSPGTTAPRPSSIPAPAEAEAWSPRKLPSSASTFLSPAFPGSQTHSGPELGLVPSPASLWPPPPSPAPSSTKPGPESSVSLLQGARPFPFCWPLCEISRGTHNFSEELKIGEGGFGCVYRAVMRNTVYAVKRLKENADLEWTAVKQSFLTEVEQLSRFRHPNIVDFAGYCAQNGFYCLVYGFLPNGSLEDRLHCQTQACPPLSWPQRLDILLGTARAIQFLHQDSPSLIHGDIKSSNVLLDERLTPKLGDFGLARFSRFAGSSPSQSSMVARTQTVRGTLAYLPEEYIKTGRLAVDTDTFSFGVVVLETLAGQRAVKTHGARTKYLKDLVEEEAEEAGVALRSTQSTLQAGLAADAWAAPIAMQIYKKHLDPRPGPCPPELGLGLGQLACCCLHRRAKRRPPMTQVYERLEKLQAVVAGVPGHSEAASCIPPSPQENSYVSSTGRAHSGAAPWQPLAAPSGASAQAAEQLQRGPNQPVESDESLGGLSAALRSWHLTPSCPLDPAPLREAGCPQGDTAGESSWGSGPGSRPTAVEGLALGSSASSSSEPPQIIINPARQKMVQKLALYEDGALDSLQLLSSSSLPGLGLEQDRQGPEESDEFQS
Procedure, shortened: as §1

[8] = molecular target: CIT (UniProt O14578)
Chain of CIT (O14578 whole entry): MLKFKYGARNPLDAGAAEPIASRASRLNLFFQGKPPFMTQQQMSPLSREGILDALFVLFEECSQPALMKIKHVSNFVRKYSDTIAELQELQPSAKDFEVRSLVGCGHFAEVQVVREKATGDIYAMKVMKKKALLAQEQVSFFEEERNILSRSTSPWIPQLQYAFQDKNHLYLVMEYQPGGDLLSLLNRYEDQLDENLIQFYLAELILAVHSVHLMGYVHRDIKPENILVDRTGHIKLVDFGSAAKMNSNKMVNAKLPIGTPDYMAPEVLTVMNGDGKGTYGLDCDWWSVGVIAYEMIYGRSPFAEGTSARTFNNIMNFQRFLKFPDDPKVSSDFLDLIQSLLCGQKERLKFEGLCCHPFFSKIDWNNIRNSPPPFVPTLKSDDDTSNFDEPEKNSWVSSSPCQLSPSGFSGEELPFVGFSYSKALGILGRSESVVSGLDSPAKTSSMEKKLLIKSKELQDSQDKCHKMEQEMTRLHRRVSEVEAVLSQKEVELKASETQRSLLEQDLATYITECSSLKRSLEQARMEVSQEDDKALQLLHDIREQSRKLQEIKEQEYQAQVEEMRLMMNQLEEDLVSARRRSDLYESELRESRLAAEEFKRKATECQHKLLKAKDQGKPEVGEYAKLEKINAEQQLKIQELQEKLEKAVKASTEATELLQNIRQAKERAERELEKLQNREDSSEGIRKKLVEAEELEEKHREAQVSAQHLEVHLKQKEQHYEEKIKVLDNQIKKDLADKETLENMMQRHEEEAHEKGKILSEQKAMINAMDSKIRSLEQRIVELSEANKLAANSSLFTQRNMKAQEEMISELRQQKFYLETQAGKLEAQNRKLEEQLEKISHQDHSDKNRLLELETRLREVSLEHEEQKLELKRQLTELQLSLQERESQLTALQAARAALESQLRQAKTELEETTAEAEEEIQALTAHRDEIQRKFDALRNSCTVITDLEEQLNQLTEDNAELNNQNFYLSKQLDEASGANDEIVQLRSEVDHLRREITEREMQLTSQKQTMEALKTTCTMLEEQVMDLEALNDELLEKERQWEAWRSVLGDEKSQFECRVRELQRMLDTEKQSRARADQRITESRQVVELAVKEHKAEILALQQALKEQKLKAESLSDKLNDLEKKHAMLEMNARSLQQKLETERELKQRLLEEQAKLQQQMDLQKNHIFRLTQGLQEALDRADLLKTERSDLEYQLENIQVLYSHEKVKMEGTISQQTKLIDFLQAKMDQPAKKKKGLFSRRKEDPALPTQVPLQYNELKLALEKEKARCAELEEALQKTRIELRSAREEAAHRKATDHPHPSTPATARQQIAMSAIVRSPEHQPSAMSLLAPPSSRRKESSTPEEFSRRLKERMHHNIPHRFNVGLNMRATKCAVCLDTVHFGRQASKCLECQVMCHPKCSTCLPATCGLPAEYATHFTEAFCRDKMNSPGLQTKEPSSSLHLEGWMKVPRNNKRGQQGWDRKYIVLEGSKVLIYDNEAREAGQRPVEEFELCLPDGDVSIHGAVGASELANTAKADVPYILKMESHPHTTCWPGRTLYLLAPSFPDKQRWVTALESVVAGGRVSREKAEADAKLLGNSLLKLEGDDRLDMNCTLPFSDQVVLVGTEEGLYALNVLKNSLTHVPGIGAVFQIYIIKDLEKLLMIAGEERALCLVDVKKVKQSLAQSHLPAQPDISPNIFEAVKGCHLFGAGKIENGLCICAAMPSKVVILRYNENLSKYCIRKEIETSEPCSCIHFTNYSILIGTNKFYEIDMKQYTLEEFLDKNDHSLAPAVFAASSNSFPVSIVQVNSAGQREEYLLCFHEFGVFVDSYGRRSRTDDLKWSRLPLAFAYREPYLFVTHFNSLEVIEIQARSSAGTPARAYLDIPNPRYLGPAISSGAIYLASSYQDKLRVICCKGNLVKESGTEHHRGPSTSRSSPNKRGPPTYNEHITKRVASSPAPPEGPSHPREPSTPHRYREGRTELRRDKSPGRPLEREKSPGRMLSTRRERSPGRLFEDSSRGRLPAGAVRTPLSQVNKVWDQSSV
Procedure, shortened: as §1

Chain of UniProt O75582 (O75582 whole entry, looked up): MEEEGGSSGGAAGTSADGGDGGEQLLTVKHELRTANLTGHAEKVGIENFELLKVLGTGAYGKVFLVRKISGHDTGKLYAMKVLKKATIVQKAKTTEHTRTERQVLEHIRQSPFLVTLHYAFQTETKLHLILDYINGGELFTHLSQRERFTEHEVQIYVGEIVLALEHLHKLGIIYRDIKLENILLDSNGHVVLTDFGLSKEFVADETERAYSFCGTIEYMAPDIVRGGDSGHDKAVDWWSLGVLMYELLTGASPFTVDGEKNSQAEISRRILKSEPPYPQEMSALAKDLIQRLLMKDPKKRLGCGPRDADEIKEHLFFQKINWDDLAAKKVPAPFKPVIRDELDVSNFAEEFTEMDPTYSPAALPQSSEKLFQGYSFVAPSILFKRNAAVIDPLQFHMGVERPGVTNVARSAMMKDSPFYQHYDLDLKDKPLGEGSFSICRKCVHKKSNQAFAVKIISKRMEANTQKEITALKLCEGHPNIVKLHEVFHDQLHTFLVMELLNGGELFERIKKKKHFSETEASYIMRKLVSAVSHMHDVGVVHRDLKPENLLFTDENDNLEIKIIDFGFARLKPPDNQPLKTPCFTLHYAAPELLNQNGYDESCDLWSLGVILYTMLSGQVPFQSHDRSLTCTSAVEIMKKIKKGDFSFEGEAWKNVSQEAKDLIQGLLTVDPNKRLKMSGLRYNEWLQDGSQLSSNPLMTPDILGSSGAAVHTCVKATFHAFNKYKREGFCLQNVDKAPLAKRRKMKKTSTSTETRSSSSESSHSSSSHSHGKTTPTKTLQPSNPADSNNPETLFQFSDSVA

pIC50 ([1]; cell material: Lysate mix) | pIC50 [2] | pIC50 ([3]; cell material: Lysate mix) | pIC50 ([4]; cell material: Lysate mix) | pIC50 ([5]; cell material: Lysate mix) | pIC50 ([6]; cell material: Lysate mix) | pIC50 ([7]; cell material: Lysate mix) | pIC50 ([8]; cell material: Lysate mix) | pIC50 ([8]; cell material: Jurkat cells) | Compound | pIC50 ([1]; cell material: Jurkat cells) | pIC50 ([1]; cell material: Jurkat lysate) | pIC50 ([3]; cell material: Jurkat cells) | pIC50 ([3]; cell material: Jurkat lysate) | pIC50 ([4]; cell material: Jurkat cells) | pIC50 ([4]; cell material: Jurkat lysate) | pIC50 ([5]; cell material: Jurkat cells) | pIC50 ([5]; cell material: Jurkat lysate) | pIC50 ([6]; cell material: Jurkat cells) | pIC50 ([6]; cell material: Jurkat lysate) | pIC50 ([7]; cell material: Jurkat cells) | pIC50 ([7]; cell material: Jurkat lysate) | pIC50 ([8]; cell material: Jurkat lysate)
5.11 | < 4.52 | < 4.52 | < 4.52 | < 4.52 | < 4.52 | 5.11 | < 4.52 |  | C#CCNC(=O)c1cc(Nc2cc(C)[nH]n2)nc(N2CCN(Cc3ccc(S(=O)(=O)F)cc3)CC2)n1 |  |  |  |  |  |  |  |  |  |  |  |  | 
< 4.52 | < 4.52 | < 4.52 | < 4.52 |  | < 4.52 |  | < 4.52 | < 4.52 | O=C(NCCNC(=O)c1cc(Nc2cc(C3CC3)[nH]n2)nc(N2CCN(Cc3ccc(S(=O)(=O)F)cc3)CC2)n1)OC1CC/C=C/CCC1 (stereo unspecified) | 5.6 | < 4.52 | 5.27 | < 4.52 |  | < 4.52 | < 4.52 | < 4.52 | < 4.52 | < 4.52 | 5.53 | < 4.52 | < 4.52
5.35 | 4.69 | 5.73 | < 4.52 | < 4.52 | < 4.52 | 5.72 | < 4.52 |  | CCNC(=O)c1cc(Nc2cc(C3CC3)[nH]n2)nc(N2CCN(Cc3ccc(S(=O)(=O)F)cc3)CC2)n1 |  |  |  |  |  |  |  |  |  |  |  |  | 
4.83 | < 4.52 | < 4.52 | < 4.52 | < 4.52 | < 4.52 | 4.8 | < 4.52 |  | CCNC(=O)c1cc(Nc2cc(C)[nH]n2)nc(N2CCN(Cc3ccc(S(=O)(=O)F)cc3)CC2)n1 |  |  |  |  |  |  |  |  |  |  |  |  | 
< 4.52 | < 4.52 | < 4.52 | < 4.52 | < 4.52 | < 4.52 | < 4.52 | < 4.52 |  | Cc1cc(Nc2cc(C(=O)NCCNC(=O)OC3CC/C=C/CCC3)nc(N3CCN(Cc4ccc(S(=O)(=O)F)cc4)CC3)n2)n[nH]1 (stereo unspecified) |  |  |  |  |  |  |  |  |  |  |  |  | 

Compound | pIC50 ([1]; cell material: Lysate mix) | pIC50 [2] | pIC50 ([3]; cell material: Lysate mix) | pIC50 ([4]; cell material: Lysate mix) | pIC50 ([5]; cell material: Lysate mix) | pIC50 ([6]; cell material: Lysate mix) | pIC50 ([7]; cell material: Lysate mix) | pIC50 ([8]; cell material: Lysate mix) | pIC50 ([8]; cell material: Jurkat cells) | pIC50 ([1]; cell material: Jurkat cells) | pIC50 ([1]; cell material: Jurkat lysate) | pIC50 ([3]; cell material: Jurkat cells) | pIC50 ([3]; cell material: Jurkat lysate) | pIC50 ([4]; cell material: Jurkat cells) | pIC50 ([4]; cell material: Jurkat lysate) | pIC50 ([5]; cell material: Jurkat cells) | pIC50 ([5]; cell material: Jurkat lysate) | pIC50 ([6]; cell material: Jurkat cells) | pIC50 ([6]; cell material: Jurkat lysate) | pIC50 ([7]; cell material: Jurkat cells) | pIC50 ([7]; cell material: Jurkat lysate) | pIC50 ([8]; cell material: Jurkat lysate)
C#CCNC(=O)c1cc(Nc2cc(C3CC3)[nH]n2)nc(N2CCN(Cc3ccc(S(=O)(=O)F)cc3)CC2)n1 | 5.6 | < 4.52 | 5.72 |  | < 4.52 | < 4.52 | 5.96 | < 4.52 |  | 6 | 4.7 | 6.02 | < 4.52 | 5.77 | < 4.52 | 5.28 | < 4.52 | < 4.52 | < 4.52 | < 4.52 | 5.37 | < 4.52
